In US20120108559A1, “RECEPTOR ACTIVATOR OF THE RANK RECEPTOR COMPLEX INHIBITOR” (THE TRUSTEES OF THE UNIVERSITY OF PENNSYLVANIA, priority 2009, published 2012):

Tested on: murine osteoclast precursors
Assay: TRANCE (RANKL)-induced osteoclast formation in vitro, TRAP assay
Assay type: cell-based
Details: osteoclast precursors cultured 3 days with murine CSF-1 (30 ng/mL) and TRANCE (300 ng/mL); FIG. 1
Description: The effects of the compound of Formula II-A-1 on TRANCE-mediated osteoclastogenesis were evaluated against murine osteoclast precursors using a TRAP (tartrate resistant acid phosphatase) assay. The techniques comprising this method are described more fully in U.S. Pat. No. 6,673,771.
Osteoclast precursors were cultured in 96-well plates (1×10^5/mL, 200 μL/well) for 3 days in the presence of murine CSF-1 (30 ng/mL) and TRANCE (300 ng/mL) with or without the compounds of Formulae III-1 and II-A-1 at the indicated concentration. After 3 days, the cells were fixed and stained for tartrate-resistant acid phosphatase (TRAP). TRAP-positive multinucleated cells were counted as osteoclast-like multinucleated cells.

| Structure (SMILES) | inhibition of TRANCE induced osteoclast formation (TRAP-positive multinucleated cells) |
| --- | --- |
| CC(=O)OCC12CCC(OC(C)=O)CC1(O)CC[C@@H]1[C@@H]2CCC2(C)C(C3=CC(=O)OC3)CCC12O (some centres unmarked) [II-A-1] | inhibited TRANCE induced osteoclast formation in vitro in a dose-dependent manner |
| CC12CC[C@H]3[C@@H](CCC4(O)CC(OC(=O)CCC(=O)O)CCC34COC(=O)CCC(=O)O)C1(O)CCC2C1=CC(=O)OC1 (some centres unmarked) [III-1] | inhibited TRANCE induced osteoclast formation in vitro in a dose-dependent manner |
